{"source": "paper PMC10923054", "about": "“Antiplasmodial peptaibols act through membrane directed mechanisms” (Cell Chemical Biology, 2024)", "key": {"PfPI4K_S1320L": {"test_system": "PfPI4K_S1320L", "test": "Cross resistance screening (1536-well SYBR Green I)", "type": "cell-based, P. falciparum", "conditions": "72 h, mean ± SEM of 3 biological replicates", "procedure": "(§1) Parasites grown in the Winzeler laboratory for screening and drug selections were maintained in RPMI 1640 medium supplemented with 0.25% Albumax I, 26 mM sodium bicarbonate, 0.1 mM hypoxanthine, and […] gentamicin. Human O+ whole blood obtained from the Blood Bank of The Scripps Research Institute was used for cultivation (human subjects IRB number: 125933). Blood-stage cultures were kept at 37°C with 5% CO2, 3% O2, and 92% N2. Monitoring of parasitemia and parasite morphology was performed using microscopic evaluation of thin blood smears that were first fixed with methanol, and then stained with Giemsa.\n(§2) Cross resistance screening was performed with 0.3% parasitemia, 2.5% hematocrit, dispensed into 1536-well black, clear bottom plates with pre-spotted compound using a MultiFloTM Microplate dispenser (BioTek) at a volume of 8 μL/well. Plates where then incubated at 37°C for 72 h, after which 10× SYBR Green I (Invitrogen) in a lysis buffer (20 mM Tris/HCl, 5 mM EDTA, 0.16% (w/v) saponin, 1.6% (v/v) […]) was then added using a MultiFloTM Microplate dispenser (BioTek) at a volume of 2 μL/well. After 24 h incubation at room temperature, viability was measured via fluorescence using the EnVision® Multilabel Reader (PerkinElmer) (485 nm excitation, 530 nm emission). IC50 values were determined in CDD vault (https://www.collaborativedrug.com/)."}, "PfACS_A597": {"test_system": "PfACS_A597", "test": "Cross resistance screening (1536-well SYBR Green I)", "type": "cell-based, P. falciparum", "conditions": "72 h, mean ± SEM of 3 biological replicates", "procedure": "as §1, §2"}, "PfCARL_I1139K": {"test_system": "PfCARL_I1139K", "test": "Cross resistance screening (1536-well SYBR Green I)", "type": "cell-based, P. falciparum", "conditions": "72 h, mean ± SEM of 3 biological replicates", "procedure": "as §1, §2"}, "HepG2-A16-CD81 cells": {"test_system": "HepG2-A16-CD81 cells", "type": "cell-based, H. sapiens", "conditions": "HepG2-A16-CD81 without sporozoites, CellTiterGlo; up to 50 μM; read-out: HepG2 EC50 (liver stage counter screen)", "procedure": "(§3) The liver stage was performed as discussed in.[61] Liver-stage inhibitory activity was evaluated in HepG2-A16-CD81 cells and using P. berghei sporozoites (P. berghei ANKA GFP-Luc-SMcon) freshly obtained by dissecting salivary glands of infected A. stephensi mosquitoes. Cells were first seeded in 1536-well plates (Greiner Bio) containing 50 nL of test and control compounds dissolved in DMSO and incubated for 24 h. Sporozoites were then added to each well at a density of 1 × 10^3 cells per well and kept at 37°C for 48 h. Afterwards, luciferin reagent (Promega BrightGlo) was added to each well, and luciferase activity was detected using a Perkin Elmer Envision plate. As a counter screen, HepG2-A16-CD81 cells were seeded as above and exposed to drug in the absence of sporozoites. Viability was evaluated by adding Promega CellTiterGlo® followed by luminescence measurement using a Perkin Elmer Envision plate reader. IC50 values were determined using CDD vault (https://www.collaborativedrug.com/)."}, "[1]": {"test_system": "PbLuc (P. berghei ANKA GFP-Luc-SMcon sporozoites in HepG2-A16-CD81 cells)", "type": "cell-based", "conditions": "48 h after sporozoite addition, luciferase; mean ± SEM of 3 biological replicates; read-out: PbLuc EC50 (P. berghei liver stage)", "procedure": "as §3"}, "[2]": {"test_system": "P. falciparum 3D7 transcriptome", "test": "RNASeq analysis of treated culture", "type": "cell-based", "conditions": "3D7, 1 h, EC50 concentration, vs vehicle", "procedure": "P. falciparum 3D7 culture was synchronized as previously described[64] by combination of MACS column (Mitenyi Biotic, Auburn, CA)[65] and 5% sorbitol.[66] In brief, asynchronous culture with a majority ring stage population was centrifuged, pelleted, and resuspended in 5% sorbitol and incubated at room temp for 10 min. Parasites were then washed with culture media and returned to the culture incubator. For MACS column, columns were rinsed once with RPMI prior to parasite addition. After flow-through was complete, parasites on the column were eluted onto culture plates and returned to the culture incubator. […] RNA was then extracted using Direct-zol™ RNA Miniprep Plus (Zymo Research Corporation, Irvine, CA.) following manufacturers protocols. In brief, culture was lysed with 0.1% saponin and incubated for 5 min prior to centrifuging at 900 x g for 6 min at 4°C. Cells were washed once with RPMI then once with PBS before resuspension in triazole reagent. Samples were mixed vigorously for 5 min, centrifuged at 16,000 x g for 1 min, then transferred to a RNase free tube, and an equal volume of EtOH was added. After mixing, sample was loaded onto column and centrifuged at 16,000 x g for 30 sec then washed with pre-wash buffer. Columns were incubated with DNase buffer for 15 min then washed with pre-wash buffer. Two more wash steps were performed before allowing any excess EtOH to dry for 2 min. Finally, columns were transferred to a new RNase free tube in which RNA was eluted with RNase free water.\nPreliminary integrity and concentration determination was performed via nanodrop and RNA gel electrophoresis, prior to a full integrity check via Agilent Technologies 2100 Bioanalyzer. After rRNA depletion, RNA fragmentation was performed using elevated temperatures and divalent cation buffers. Library preparation was done using the Illumina TruSeq-stranded-total-RNA-sample preparation protocol, with Agilent Technologies 2100 Bioanalyzer High Sensitivity DNA Chip for quality control, and Illumina’s NovaSeq 6000 sequencing system for paired-ended sequencing. For transcript assembly, Cutadapt[71] and LC Sciences in house perl scripts were used to remove low quality or undetermined bases and reads, along with adaptor contamination. Sequence quality was then confirmed using FastQC.[72] Reads were mapped to the P. falciparum genome using Bowtie2[73] and HISAT2,[74] then assembled using StringTie.[75] To assist in the filtering process, the transcriptomes from HZ NPDG-I and the vehicle control were assembled simultaneously to construct a merged transcriptome using perl scripts and gffcompare.[76] Finally, StringTie[75] and edgeR[77] were used to estimate transcript expression levels by calculating FPKM using the following equation: FPKM=totalexonfragments/mappedreads(millions)xexonlength(kB)\nTo calculate p value, a parametric F-test comparing nested linear models was performed using edgeR.[77] The q-values were also calculated using a Benjamini-Hochberg procedure. Differential expression for mRNA was calculated at the gene level (all transcript isoforms grouped as 1 gene) and the transcript level (all transcript isoforms ranked individually). […] The coding potential of the remaining transcripts was then determined using CPC[78] and CNCI,[79] and transcripts with a CPC score <0.5 and/or CNCI score <0 were removed. […] The predicted cis-targets of the novel lncRNAs were then determined for the coding genes 100,000 bp upstream and downstream with perl script. […]"}}, "note": "Square brackets hold non-standard residues; d marks the D form. Peptide text beside a SMILES is read from it. Leu(ol) = CC(C)C[C@H](N)CO; dIva = CC[C@@](C)(N)C(=O)O; Aib = CC(C)(N)C(=O)O", "data": [{"compound": "CC[C@H](C)[C@H](NC(=O)[C@H](CC(C)C)NC(=O)[C@H](CCC(N)=O)NC(=O)[C@@](C)(CC)NC(C)=O)C(=O)NC(C)(C)C(=O)N1CCC[C@H]1C(=O)N[C@](C)(CC)C(=O)N[C@@H](CC(C)C)C(=O)NC(C)(C)C(=O)N1CCC[C@H]1C(=O)N[C@H](CO)CC(C)C", "note": "[HZ NPDG-I, harzianin NPDG I] (Ac-[dIva]QLI[Aib]P[dIva]L[Aib]P[Leu(ol)])", "values": [{"measurement": "EC50", "setting": "PfPI4K_S1320L", "result": "0.013 ± 0.003", "unit": "µM"}, {"measurement": "EC50", "setting": "PfACS_A597", "result": "0.023 ± 0.005", "unit": "µM"}, {"measurement": "EC50", "setting": "PfCARL_I1139K", "result": "0.008 ± 0.001", "unit": "µM"}, {"measurement": "EC50", "setting": "HepG2-A16-CD81 cells", "result": "> 50", "unit": "µM"}, {"measurement": "EC50", "setting": "[1]", "result": 2.7, "unit": "µM"}, {"measurement": "RNA-seq log2fc, PF3D7_0106100", "setting": "[2]", "result": "−1.35"}, {"measurement": "RNA-seq log2fc, PF3D7_0519200.1", "setting": "[2]", "result": "−5.06"}, {"measurement": "RNA-seq log2fc, PF37D_1419800.1", "setting": "[2]", "result": "−3.23"}, {"measurement": "RNA-seq log2fc, lncRNA MSTRG.194.1", "setting": "[2]", "result": 16.51}, {"measurement": "RNA-seq log2fc, lncRNA MSTRG.363.2", "setting": "[2]", "result": 14.54}]}]}
